Experiments:
[1] = tested on: LTC4; experiment: Rat colon mucosa in vitro, short-circuit current: LTC4-induced electrolyte secretion; conditions: six animals
Text: (§1) The rat colon mucosa bioassay system is based on the measurement of changes in salt transport across the animal tissue due to absorption or secretion, using the standard short-circuit current technique described by Ussing, et al., Acta Physiol. Scand. 23: 110-127 (1951). Diarrhea is the most common symptom of gastrointestinal inflammation and is present in all types of inflammatory bowel disease. Pantera, et al., Ital. J. Gastroenterol. 13: 24-27 (1981); Sales, et al., Arch. Int. Med. 143: 294-299 (1983); Hodgson, Br. J. Clin. Pharmac. 14: 159-270 (1982). Diarrhea results from decreases in the salt absorption or increases in the salt secretion in the bowel and can be quantified in vitro by the above mentioned method of Ussing et al. In particular, a one-cm segment of colon is removed from animals weighing 200 to 250 g, exposed in vitro to leukotrienes or to bradykinin, which are inducers of salt secretion, and the resulting change in the net salt transport with and without the presence of 6-acetyl-7-[5-(4-acetyl-3 -hydroxy-2-propylphenoxy) pentyloxy]-3,4-dihydro-2H-1-benzopyran-2-carboxylic acid as an inhibitor is measured. Tissues were mounted in pairs in Ussing chambers and short-circuited with automatic voltage clamps (from the University of Iowa Bioengineering Department). A 15-minute period of equilibrium was allowed for the preparation to reach steady state. […]

[2] = tested on: guinea pig colon; experiment: Carrageenan-induced colitis in guinea pigs, in vivo (water transport in distal colon); parameters: species or system Male/female guinea pigs (Hartley); conditions: oral
Text: The guinea pig carrageenan-induced colitis biossay has been described by A. B. Onderdonk in Inflammatory Bowel Diseases, Martinus Nijhoff Publ., Boston, Mass., pages 126-134 (1982), and in Human Intestinal Microflora in Health and Disease (D. J. Hentger, ed.), Academic Press, New York, 1983, pages 447-479. The polysaccharide iotacarrageenan, derived from red seaweed, produces a colitis in guinea pigs that resembles ulcerative colitis in humans. Male/female guinea pigs (Hartley), weighing 400 to 650 g, were given a 3% solution of degraded carrageenan in their drinking water on a daily basis. After about 7 days, the animals began to develop diarrhea, ceased to gain weight and became lethargic. After the animals received carrageenan in this manner for 14 days, the diarrhea was quantified by measuring the water transport in the distal colon by single pass perfusion using 14C-polyethylene glycol 4000 (PEG 4000) as a marker. Control animals were given an aqueous drinking solution containing 3% mannitol in place of the carrageenan. Simultaneously, randomly selected animals from each of these two groups were treated orally with the test inhibitor compound, twice daily. […]

[3] = tested on: LTB4; experiment: Rat colon mucosa in vitro, short-circuit current: LTB4-induced electrolyte secretion; conditions: six animals
Text: as §1

[4] = tested on: myeloperoxidase of the rat colon; experiment: Acetic acid-induced colitis in rats, in vivo (colonic myeloperoxidase); parameters: species or system Male rats (Sprague-Dawley); conditions: oral
Text: The rat acetic acid-induced colitis biossay has been described by J. E. Krawisz, et al. in Amer. J. Proc. Gastro. Col. Rec. Surg. 31: 11-18 (1980), and by P. Sharon and W. F. Stenson in Gastroenterology 88: 55-63 (1985) and 86: 453-460 (1984). Acetic acid-induced colitis is characterized by the movement of inflammatory cells into the colon, with the number of such cells in the mucosa being measured by the activity of myeloperoxidase, a marker enzyme for these cells. Positive desirable activity is indicated by a reduction in the high levels of myeloperoxidase caused by acetic acid. Male rats (Sprague-Dawley), weighing 150 to 300 g, were pretreated twice daily for two days with either the vehicle (water, or dimethylsulfoxide) or the test inhibitor compound suspended in water or dissolved in dimethylsulfoxide and orally administered. […] Twenty four hours after the acetic acid treatment, the animals were sacrificed, the colonic mucosa was surgically removed and homogenized in an aqueous buffer at pH 6 with a Tissumizer or similar device, and myeloperoxidase was measured in the homogenate using o-phenylenediamine as a chromagen, as described by A. Voller, D. E. Bidwell and A. Bartlett in The Enzyme Linked Immunosorbent Assay (ELISA), Zoological Soc., London, 1979, pages 29-30. […]

[5] = tested on: antibiotic-induced colitis; experiment: Antibiotic (clindamycin)-induced colitis in hamsters, in vivo; parameters: species or system Male Syrian hamsters (LUG); conditions: for activity in clindamycin-induced colitis: oral
Procedure: Male Syrian hamsters (LUG), weighing 80 to 120 g, were each given a single dose of 175 mg/kg of clindamycin-phosphate or of clindamycin-hydrochlorideintraperitoneally, to induce colitis. Approximately seven hours after injection, the animals were given the test compound orally or intraperitoneally and the therapy was continued twice a day for a period of four more days. For oral administration, the […] was suspended in water or dissolved in dimethylsulfoxide and delivered to the animals by gavage using an oral intubating needle. The effect of the therapy was measured by use of the Hazard Ratio, which is the ratio of the mortality of the animals treated with the test inhibitor compound contained in a vehicle to the mortality of the animals treated with the vehicle containing none of the test inhibitor compound. The mortality was determined for the test inhibitor compound-treated groups and for the vehicle-treated groups, respectively, twice daily, and was evaluated by comparing the survival curves of each group. The Kaplan-Meier estimate of the survival curve was calculated for each group and the Mantel-Cox (logrank) test was used to compare the survival curve of each test inhibitor compound-treated (therapy) group to that of the corresponding vehicle control group. […]

[6] = tested on: LTE4; experiment: Rat colon mucosa in vitro, short-circuit current: LTE4-induced electrolyte secretion; conditions: six animals
Text: as §1

[7] = tested on: LTD4; experiment: Rat colon mucosa in vitro, short-circuit current: LTD4-induced electrolyte secretion; conditions: six animals
Text: as §1

[8] = 10 mg/kg oral, in 0.15 ml water, >1.0 = prolongs survival vs. vehicle

CCCc1c(OCCCCCOc2cc3c(cc2C(C)=O)CCC(C(=O)O)O3)ccc(C(C)=O)c1O (racemic) [6-acetyl-7-[5-(4-acetyl-3-hydroxy-2-propylphenoxy)pentyloxy]-3,4-dihydro-2H-1-benzopyran-2-carboxylic acid]
% Inhibition Against Leukotrienes, LTC4 ([1]; 1 μM inhibitor): 9.5 ± 19.2%
% Inhibition Against Leukotrienes, LTC4 ([1]; 10 μM inhibitor): 57.1 ± 19.7%
water transport rate in the colon ([2]; 10 and 30 mg/kg, carrageenan-diseased animals (FIG. 5)): water transport rates about equal to that of the control animals
% Inhibition Against Leukotrienes, LTB4 ([3]; 1 μM inhibitor): 44.4 ± 13.1%
% Inhibition Against Leukotrienes, LTB4 ([3]; 10 μM inhibitor): 69.6 ± 11.9%
activity in reducing myeloperoxidase of the rat colon ([4]; 30 and 90 mg/kg (FIG. 3)): active
Hazard Ratio [5, 8]: 3.80
Hazard Ratio ([5]; 60 mg/kg intraperitoneal, in 0.075 ml PEG400, >1.0 = prolongs survival vs. vehicle): 4.77
Hazard Ratio ([5]; 60 mg/kg oral, in 0.15 ml water, >1.0 = prolongs survival vs. vehicle): 12.0
Hazard Ratio ([5]; 100 mg/kg oral, in 0.15 ml water, >1.0 = prolongs survival vs. vehicle): 64.2
edema, hemorrhaging, congestion, necrosis, focal erosions, inflammatory cell infiltration of cecum (and colon) ([5]; 60 or 100 mg/kg): In most cases these effects were reduced or abolished
diarrhea ([5]; clindamycin-treated hamsters): reduced the diarrhea
histopathology of the cecum and colon ([5]; clindamycin-treated hamsters): substantially benefited the histopathology of the cecum and colon
survival of clindamycin-treated animals ([5]; clindamycin-treated hamsters): prolonging the survival
Hazard Ratio ([5]; ip, 10 mg/kg): 2.87
activity in clindamycin-induced colitis ([5]; doses ranging from 10 to 100 mg/kg): active
% Inhibition Against Leukotrienes, LTE4 ([6]; 1 μM inhibitor): 29.8 ± 15.0%
% Inhibition Against Leukotrienes, LTE4 ([6]; 10 μM inhibitor): 44.2 ± 9.8%
% Inhibition Against Leukotrienes, LTD4 ([7]; 1 μM inhibitor): 30.8 ± 15.4%
% Inhibition Against Leukotrienes, LTD4 ([7]; 10 μM inhibitor): 62.4 ± 10.0%

CCCc1c(OCC(O)COc2ccc3c(=O)cc(C(=O)O)oc3c2CCC)ccc(C(C)=O)c1O (stereo not drawn) [Comparison 1, 7-[3-(4-acetyl-3-hydroxy-2-propylphenoxy)-2-hydroxypropoxy]-4-oxo-8-propyl-4H-1-benzopyran-2-carboxylic acid, reference compound]
Hazard Ratio [5, 8]: 1.42
Hazard Ratio ([5]; ip, 10 mg/kg): 2.02
activity in clindamycin-induced colitis ([5]; 10 mg/kg): inactive

CCCc1c(OCCCOc2ccc3c(=O)cc(CCC(=O)O)oc3c2CCC)ccc(C(C)=O)c1O [Comparison 2, 7-[3-(4-acetyl-3-hydroxy-2-propylphenoxy)propoxy]-4-oxo-8-propyl-4H-1-benzopyran-2-propanoic acid, reference compound]
Hazard Ratio ([5]; 13 mg/kg oral, in 0.15 ml water, >1.0 = prolongs survival vs. vehicle): 1.68
activity in clindamycin-induced colitis ([5]; 10 mg/kg): inactive

O=C1CCN(c2ccccc2)N1 [phenidone, reference compound]
activity in reducing myeloperoxidase of the rat colon ([4]; 100 and 200 mg/kg (FIG. 2)): active

O=C(O)c1cc(/N=N/c2ccc(S(=O)(=O)Nc3ccccn3)cc2)ccc1O [sulfasalazine, reference compound]
water transport in the colon ([2]; 100 mg/kg, carrageenan-diseased animals (FIG. 4)): restored the water transport in the colon of the diseased animals from a net secretory level to a level about that of the control animals

From patent US5112856A, “Therapeutic treatment of intestinal inflammation by administration of 3,4-dihydro-2H-1-benzopyran derivatives” (Hoffmann-La Roche Inc., priority 1990, dated 1992)
